Measured values from ChEMBL document CHEMBL1201862, “PubChem BioAssay data set” (2004).
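Method: 48-hour compound exposure of cells in 96-well plates, five concentrations, linear interpolation of endpoints. Abbreviation: GI50, concentration required for 50% inhibition of growth.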 Calls of active or inactive are those of the source. Cut-off read from the data, not from the text of the source: active = GI50 up to about 1.1 µM and inactive = higher.

How the values were obtained:
Test in all cases: NCI-60 cell line screen, 48 h
SNB-75 = tested on: SNB-75
OVCAR-5 = tested on: OVCAR-5
KM12 = tested on: KM12
BT-549 = tested on: BT-549
IGROV-1 = tested on: IGROV-1
HCC 2998 = tested on: HCC 2998
HOP-62 = tested on: HOP-62
UACC-62 = tested on: UACC-62
MCF7 = tested on: MCF7
SK-MEL-2 = tested on: SK-MEL-2
UACC-257 = tested on: UACC-257
NCI/ADR-RES = tested on: NCI/ADR-RES
EKVX = tested on: EKVX
SN12C = tested on: SN12C
OVCAR-4 = tested on: OVCAR-4
HCT-116 = tested on: HCT-116
U-251 = tested on: U-251
NCI-H23 = tested on: NCI-H23
UO-31 = tested on: UO-31
OVCAR-8 = tested on: OVCAR-8
NCI-H460 = tested on: NCI-H460
Hs-578T = tested on: Hs-578T
M14 = tested on: M14
SF-268 = tested on: SF-268
HOP-92 = tested on: HOP-92
HT-29 = tested on: HT-29
CCRF-CEM = tested on: CCRF-CEM
A549 = tested on: A549
SNB-19 = tested on: SNB-19
SK-MEL-28 = tested on: SK-MEL-28
T47D = tested on: T47D
HCT-15 = tested on: HCT-15
DU-145 = tested on: DU-145
786-0 = tested on: 786-0
A498 = tested on: A498
NCI-H226 = tested on: NCI-H226
ACHN = tested on: ACHN
NCI-H522 = tested on: NCI-H522
HL-60 = tested on: HL-60
MOLT-4 = tested on: MOLT-4
MDA-N = tested on: MDA-N
CAKI-1 = tested on: CAKI-1
TK-10 = tested on: TK-10
SF-539 = tested on: SF-539
LOX IMVI = tested on: LOX IMVI
PC-3 = tested on: PC-3
SF-295 = tested on: SF-295
SR = tested on: SR
Malme-3M = tested on: Malme-3M
K562 = tested on: K562
OVCAR-3 = tested on: OVCAR-3
MDA-MB-231 = tested on: MDA-MB-231
SK-OV-3 = tested on: SK-OV-3
SW-620 = tested on: SW-620
COLO 205 = tested on: COLO 205
RXF 393 = tested on: RXF 393
SK-MEL-5 = tested on: SK-MEL-5
MDA-MB-435 = tested on: MDA-MB-435
RPMI-8226 = tested on: RPMI-8226

C[C@@H]1CC[C@@]2(C)[C@H](C)/C(=C\COC(=O)/C=C/c3ccc(O)c(O)c3)CC[C@@]12C [NAVICULYL CAFFEATE]
GI50 (SNB-75): 11.9 µM (inactive) | GI50 (OVCAR-5): 18 µM (inactive) | GI50 (KM12): 3.95 µM (inactive) | GI50 (BT-549): 14.6 µM (inactive) | GI50 (IGROV-1): 7.31 µM (inactive) | GI50 (HCC 2998): 7.67 µM (inactive) | GI50 (HOP-62): 13.1 µM (inactive) | GI50 (UACC-62): 10.3 µM (inactive) | GI50 (MCF7): 2.83 µM (inactive) | GI50 (SK-MEL-2): 12.6 µM (inactive) | GI50 (UACC-257): 11.8 µM (inactive) | GI50 (NCI/ADR-RES): 7.8 µM (inactive) | GI50 (EKVX): 15 µM (inactive) | GI50 (SN12C): 4.55 µM (inactive) | GI50 (OVCAR-4): 4.65 µM (inactive) | GI50 (HCT-116): 2.78 µM (inactive) | GI50 (U-251): 5.35 µM (inactive) | GI50 (NCI-H23): 9.23 µM (inactive) | GI50 (UO-31): 8.73 µM (inactive) | GI50 (OVCAR-8): 9.42 µM (inactive) | GI50 (NCI-H460): 3.57 µM (inactive) | GI50 (Hs-578T): 13.2 µM (inactive) | GI50 (M14): 8.18 µM (inactive) | GI50 (SF-268): 9.84 µM (inactive) | GI50 (HOP-92): 14.1 µM (inactive) | GI50 (HT-29): 3.94 µM (inactive) | GI50 (CCRF-CEM): 1.11 µM (active) | GI50 (A549): 7.62 µM (inactive) | GI50 (SNB-19): 11.5 µM (inactive) | GI50 (SK-MEL-28): 10.8 µM (inactive) | GI50 (T47D): 12.6 µM (inactive) | GI50 (HCT-15): 4.1 µM | GI50 (DU-145): 8.02 µM (inactive) | GI50 (786-0): 4.37 µM (inactive) | GI50 (A498): 12.9 µM (inactive) | GI50 (NCI-H226): 6.05 µM (inactive) | GI50 (ACHN): 4.19 µM (inactive) | GI50 (NCI-H522): 1.28 µM (inactive) | GI50 (HL-60): 5.26 µM (inactive) | GI50 (MOLT-4): 2.26 µM (inactive) | GI50 (MDA-N): 3.42 µM (inactive) | GI50 (CAKI-1): 4.58 µM (inactive) | GI50 (TK-10): 3.5 µM (inactive) | GI50 (SF-539): 4.83 µM (inactive) | GI50 (LOX IMVI): 6.01 µM (inactive) | GI50 (PC-3): 4.71 µM (inactive) | GI50 (SF-295): 8.87 µM (inactive) | GI50 (SR): 2.41 µM (inactive) | GI50 (Malme-3M): 14 µM (inactive) | GI50 (K562): 4.99 µM (inactive) | GI50 (OVCAR-3): 8.63 µM (inactive) | GI50 (MDA-MB-231): 7.83 µM (inactive) | GI50 (SK-OV-3): 12.4 µM (inactive) | GI50 (SW-620): 4.95 µM (inactive) | GI50 (COLO 205): 3.61 µM (inactive) | GI50 (RXF 393): 15.7 µM (inactive) | GI50 (SK-MEL-5): 5.15 µM (inactive) | GI50 (MDA-MB-435): 3.33 µM (inactive) | GI50 (RPMI-8226): 2.21 µM (inactive)
